Reference: patent publication US20110287934A1, “HERBICIDAL COMPOSITION FOR TOLERANT OR RESISTANT RICE CROPS” (priority 2010, published 2011)

Legend:
Type in all cases: in vivo
[1] = test system: rice (GA-tolerant); assay: Greenhouse trial, crop plant compatibility in rice (GA-tolerant)
Protocol: (§1) The trials were carried out under greenhouse conditions (test pots, diameter 8 cm, spray application using 300 l of water/hectare, 2 repetitions, 6 to 8 plants per pot, permanently flooded).
(§2) Scoring was by visual comparison of the treated with the untreated controls (0-100% scale, 13-15 days after the application) (see details in the respective tables).

[2] = test system: Amaranthus retroflexus; assay: Greenhouse trial, efficacy with respect to Amaranthus retroflexus; details: post-emergence, 2-3-leaf stage, scoring 13 days after treatment
Protocol: as §1
(§3) Application was by post-emergence treatment, the species of the harmful plants and their stage of growth at the time of treatment are indicated in the individual results tables. The application rates of the herbicidally active compounds used on their own or in combinations are likewise listed in the individual results tables.
as §2
(§4) 4.2 Abbreviations Used in Tables 4 to 6 • application rate g/ai=application rate in grams of active compound per hectare • ai=active ingredient (of an active compound content of 100%) • GA=glufosinate-ammonium • GA-tolerant=rice which is tolerant to GA (GMO: LL-rice) • E^C=expected value according to Colby, (E^C=A+B−A×B/100) • =for ternary combinations: (A+B)+C−(A+B)×C/100 • E^A=expected value according to the addition method (E^A=A+B) • Δ=difference (%) between observed value—%—vs. expected value (%) (observed value minus expected value) examination: observed values for (A), (B) and (A)+(B) in scoring: observed value (%) greater >than E^C/E^A:->synergism (+Δ) • observed value (%) equal to =E^C/E^A->additive effect (+−0Δ) • observed value (%) smaller <than E^A/E^C->antagonism (−Δ)

[3] = test system: Cyperus esculentus; assay: Greenhouse trial, efficacy with respect to Cyperus esculentus; details: post-emergence, 1-3-leaf stage, scoring 15 days after application
Protocol: as §1, §3, §2, §4

[4] = test system: Leptochloa chinensis; assay: Greenhouse trial, efficacy with respect to Leptochloa chinensis; details: post-emergence
Protocol: as §1, §3, §2, §4

[5] = 100 g of ai/ha, post-emergence, 1-3-leaf stage, scoring 15 days after application (Table 5)
[6] = Dinebra chinensis, 360 h, read-out: Herbicidal activity % Leptochloa chinensis
[7] = 50 g of ai/ha, post-emergence, 1-3-leaf stage, scoring 15 days after application (Table 5)

## CP(=O)(O)CCC(N)C(=O)O (centres unmarked) [A1.1, glufosinate-ammonium]
[1]; [5]
  Damage to crop plants (%) rice (GA-tolerant) (≦15-20% acceptable): 10%
[1]; 100 g of ai/ha, post-emergence, 1-3-leaf stage, scoring 15 days after application (Table 6)
  Damage to crop plants (%) rice (GA-tolerant) (≦15-20% acceptable): 10%
[1]; 100 g of ai/ha, post-emergence, 2-3-leaf stage, scoring 13 days after treatment
  Damage to crop plants (%) rice (GA-tolerant) (≦15-20% acceptable): 10%
[2]; 100 g of ai/ha
  Herbicidal efficacy % Amaranthus retroflexus: 55%
[3]; 100 g of ai/ha
  Herbicidal efficacy % Cyperus esculentus: 25%
[4]; [6]
  inhibition at 100 g/ha: 10%

## COC(=O)c1nc(-c2ccc(Cl)c(OC)c2F)cc(N)c1Cl [B1.1, methyl 4-amino-3-chloro-6-(4-chloro-2-fluoro-3-methoxyphenyl)pyridine-2-carboxylate]
[1]; in vivo
  Damage to crop plants (%) rice (GA-tolerant) (≦15-20% acceptable): 0%
[2]; 20 g of ai/ha
  Herbicidal efficacy % Amaranthus retroflexus: 90%
[3]; 20 g of ai/ha
  Herbicidal efficacy % Cyperus esculentus: 60%
[4]; [6]
  inhibition at 20 g/ha: 45%

## Cc1nn(-c2cc(CC(Cl)C(=O)O)c(Cl)cc2F)c(=O)n1C(F)F (centres unmarked) [C13, carfentrazone]
[1]; 4 g of ai/ha, post-emergence, 1-3-leaf stage, scoring 15 days after application (Table 5)
  Damage to crop plants (%) rice (GA-tolerant) (≦15-20% acceptable): 10%
[3]; 4 g of ai/ha
  Herbicidal efficacy % Cyperus esculentus: 0%

## CC1(C)CON(Cc2ccccc2Cl)C1=O [C17, clomazone]
[1]; [5]
  Damage to crop plants (%) rice (GA-tolerant) (≦15-20% acceptable): 0%
[3]; 100 g of ai/ha
  Herbicidal efficacy % Cyperus esculentus: 10%

## C[C@@H](Oc1ccc(Oc2ccc(C#N)cc2F)cc1)C(=O)O [C19, cyhalofop]
[1]; [7]
  Damage to crop plants (%) rice (GA-tolerant) (≦15-20% acceptable): 0%
[3]; 50 g of ai/ha
  Herbicidal efficacy % Cyperus esculentus: 10%

## O=C(O)COc1ccc(Cl)cc1Cl [C20, 2,4-D]
[1]; [5]
  Damage to crop plants (%) rice (GA-tolerant) (≦15-20% acceptable): 0%
[3]; 100 g of ai/ha
  Herbicidal efficacy % Cyperus esculentus: 20%

## CCOc1ccccc1OS(=O)(=O)NC(=O)Nc1nc(OC)cc(OC)n1 [C24, ethoxysulfuron]
[1]; in vivo
  Damage to crop plants (%) rice (GA-tolerant) (≦15-20% acceptable): 0%
[2]; 10 g of ai/ha
  Herbicidal efficacy % Amaranthus retroflexus: 40%

## CCOC(=O)[C@@H](C)Oc1ccc(Oc2nc3ccc(Cl)cc3o2)cc1 [C29, fenoxaprop-P-ethyl]
[1]; 10 g of ai/ha, post-emergence, 2-3-leaf stage, scoring 13 days after treatment
  Damage to crop plants (%) rice (GA-tolerant) (≦15-20% acceptable): 10%
[2]; 10 g of ai/ha
  Herbicidal efficacy % Amaranthus retroflexus: 10%

## CCN(C(=O)n1nnn(-c2ccccc2Cl)c1=O)C1CCCCC1 [C30, fentrazamide]
[2]; 75 g of ai/ha
  Herbicidal efficacy % Amaranthus retroflexus: 30%

## COC(=O)c1ccccc1S(=O)(=O)NC(=O)Nc1nc(C)nc(OC)n1 [C43, metsulfuron-methyl]
[1]; in vivo
  Damage to crop plants (%) rice (GA-tolerant) (≦15-20% acceptable): 15%
[3]; 3 g of ai/ha
  Herbicidal efficacy % Cyperus esculentus: 0%

## CC(C)Oc1cc(-n2nc(C(C)(C)C)oc2=O)c(Cl)cc1Cl [C50, oxadiazon]
[1]; in vivo
  Damage to crop plants (%) rice (GA-tolerant) (≦15-20% acceptable): 0%
[3]; 3 g of ai/ha
  Herbicidal efficacy % Cyperus esculentus: 10%

## CCC(CC)Nc1c([N+](=O)[O-])cc(C)c(C)c1[N+](=O)[O-] [C53, pendimethalin]
[1]; 200 g of ai/ha, post-emergence, 2-3-leaf stage, scoring 13 days after treatment
  Damage to crop plants (%) rice (GA-tolerant) (≦15-20% acceptable): 10%
[2]; 200 g of ai/ha
  Herbicidal efficacy % Amaranthus retroflexus: 50%

## CCC(=O)Nc1ccc(Cl)c(Cl)c1 [C55, propanil]
[1]; 500 g of ai/ha, post-emergence, 1-3-leaf stage, scoring 15 days after application (Table 5)
  Damage to crop plants (%) rice (GA-tolerant) (≦15-20% acceptable): 0%
[3]; 500 g of ai/ha
  Herbicidal efficacy % Cyperus esculentus: 10%

## CCOC(=O)c1cnn(C)c1S(=O)(=O)NC(=O)Nc1nc(OC)cc(OC)n1 [C59, pyrazosulfuron-ethyl]
[1]; 50 g of ai/ha, post-emergence, 2-3-leaf stage, scoring 13 days after treatment
  Damage to crop plants (%) rice (GA-tolerant) (≦15-20% acceptable): 10%
[2]; 50 g of ai/ha
  Herbicidal efficacy % Amaranthus retroflexus: 60%

## CS(=O)(=O)c1ccc(C(=O)C2C(=O)CCCC2=O)c(Cl)c1COCC1CCCO1 (centres unmarked) [C64, tefuryltrione]
[1]; [7]
  Damage to crop plants (%) rice (GA-tolerant) (≦15-20% acceptable): 0%
[3]; 50 g of ai/ha
  Herbicidal efficacy % Cyperus esculentus: 30%

## COc1nc(OC)nc(C(=O)c2cccc(F)c2N(C)S(=O)(=O)C(F)F)n1 [C72, AE 196 triafamone]
[1]; 6 g of ai/ha, post-emergence, 1-3-leaf stage, scoring 15 days after application (Table 5)
  Damage to crop plants (%) rice (GA-tolerant) (≦15-20% acceptable): 0%
[3]; 6 g of ai/ha
  Herbicidal efficacy % Cyperus esculentus: 65%

## oxadiargyl [C49]
[4]; 25 g of ai/ha, 1-3-leaf stage, scoring 15 days after application
  Herbicidal activity % Leptochloa chinensis: 70%
